From PubChem BioAssay AID179 (DTP/NCI, 2004)
Active and inactive are the calls of the source.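 Rule for the calls: active = compounds giving half or more protection of infected cells from virus-caused growth loss, again on retest; inactive = the rest.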

Test system: CEM cells HIV-1 protection, formazan growth assay
Assay: NCI AIDS Antiviral Assay
Conditions: for IC50: measured here: growth of uninfected CEM cells
In short: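 Five concentrations of each compound were applied to infected and uninfected human CEM cells. Protection from HIV-1 was judged from growth measured with a soluble formazan assay.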

| SMILES | EC50 [µM] | IC50 [µM] | outcome |
| --- | --- | --- | --- |
| CCOC(=O)C(C(=O)OCC)=S1c2ccccc2Sc2ccccc21 | > 200 | > 200 | – |
| CN/C=C(\C(=O)c1ccc(OC)c(OC)c1)c1ccc(OC)cc1 | > 398 | 6.92 | – |
| Cn1c(=O)c2c(nc3sc4c(n32)C(=O)c2c(O)ccc(O)c2C4=O)n(C)c1=O | 0.2 | 0.257 | – |
| CCCCCCNC(=O)C1=C(C)NC(C)=C(C(=O)NCCCCCC)C1 | – | 89.1 | inactive |
| O=[N+]([O-])c1ccccc1S(=O)(=O)c1ccccc1 | 18.2 | 170 | – |
| CC(=O)COP(=O)(OCC(C)=O)OCC1OC(n2cc(C)c(=O)[nH]c2=O)CC1N=[N+]=[N-] (stereo unspecified) | 0.000631 | 2 | – |
| C=[N+](CNC(=O)CNC(=O)C(Cc1ccccc1)NC(=O)OC(C)(C)C)C(=O)CNC(=O)C(Cc1ccccc1)NC(=O)OC(C)(C)C (stereo unspecified) | > 100 | > 100 | – |
| COc1cc(C(c2c(O)c3ccccc3oc2=O)c2c(O)c3ccccc3oc2=O)cc(OC)c1OC | > 200 | 93.3 | – |
| C=CC(C)(C)[C@@]12CC3C(=O)N[C@@H](Cc4ccccc4)C(=O)N3[C@@H]1N(C(C)=O)c1ccccc12 (stereo partly specified) | > 81.3 | 70.8 | – |
| COC(=O)/C(=N/Nc1cccc(Cl)c1)C(C(=O)C(=O)Nc1cccc(Cl)c1C)c1nc2ccccc2nc1C (stereo unspecified) | > 12.9 | > 12.9 | – |
| CCOC(=O)NC(NNc1ccc([N+](=O)[O-])cc1[N+](=O)[O-])(C(F)(F)F)C(F)(F)F | > 200 | 43.7 | – |
| CCC12C=CCN3CC[C@]4(C(=C(C(=O)OC)[C@@H]1Nc1ncnc5c1ncn5C1OC(COC(C)=O)C(OC(C)=O)C1OC(C)=O)Nc1ccccc14)C32 (stereo partly specified) | > 13.8 | 7.76 | – |
| COc1cc2ccc(CC(=O)O)cc2cc1OC | – | – | inactive |
| Cn1nnnc1SC(F)(F)c1nc2ccccc2o1 | 126 | > 200 | – |
| COc1ccc2c(c1)-c1nn(CCCN(C)C)c3ccc([N+](=O)[O-])c(c13)N2 | > 537 | 0.17 | inactive |
| O=C(O)C(SSC(C(=O)O)(c1ccccc1)c1ccccc1)(c1ccccc1)c1ccccc1 | > 200 | 89.1 | – |
| OCCN(CCO)c1nc(N(CCO)CCO)nc(N(CCO)CCO)n1 | > 200 | > 200 | – |
| CC(C)OP(=O)(OC(C)C)C([CH2][Sn]([CH3])([CH3])[Cl])P(=O)(c1ccccc1)c1ccccc1 (stereo unspecified) | > 200 | 2.88 | – |
| C=CCSS/C=C/CS(=O)CC=C (stereo unspecified) | > 81.3 | 0.692 | – |
| O=C1/C(=C/c2ccccc2[N+](=O)[O-])CCCc2ccccc21 | > 200 | 34.7 | – |
| CC1=NN2C(=N)/C(=C/c3ccccc3)C(=O)N=C2S1 | > 200 | > 200 | – |

| SMILES | EC50 [µM] | IC50 [µM] | outcome |
| --- | --- | --- | --- |
| O=C(O)C1CCC(=O)N1S(=O)(=O)c1ccccc1 (stereo unspecified) | – | – | inactive |
| COc1ccc(-c2cc(=O)c3cc(Cl)cc(Cl)c3o2)cc1OC | > 100 | > 100 | – |
| CCC1(N=[N+]=[N-])C(=O)c2ccccc2N(C)C1=O (stereo unspecified) | > 200 | > 200 | – |
| CN(C)c1c(C2OC(CO)C(O)C2O)c(=O)c1=O (stereo unspecified) | > 200 | > 200 | – |
| OC1C2C=CCC1CCC2 (stereo unspecified) | – | – | inactive |
| COc1ccc(/C=C/C(=O)c2sc(-n3nc(-c4ccccc4)cc3-c3ccccc3)nc2C)cc1OC | > 70.8 | 38 | – |
| Brc1cc2c(cc1C1SCCS1)OCO2 | > 107 | 60.3 | – |
| CCOC(=O)C(CCCl)C(=O)OCC | > 200 | > 200 | – |
| CCOC(=O)/C(C(N)=O)=C(/O)c1cnccn1 | > 200 | > 200 | – |
| CC(C)N1CCOC(c2ccc(O)c(O)c2)C1 (stereo unspecified) | > 200 | 95.5 | – |
| Cc1ccc(-c2c(C#N)c(O)n(NS(=O)(=O)c3ccccc3)c(=O)c2C#N)cc1 | > 200 | > 200 | – |
| O=C(/C=C/c1ccccc1[N+](=O)[O-])c1ccccc1 | > 39.8 | 6.92 | – |
| C=C(CCCCOCOCCOC)c1ccccc1 | – | – | inactive |
| CC(C)=CCC12Cc3ccc(O)cc3C(C(C)CN1)C2C (stereo unspecified) | > 200 | > 200 | – |
| O=C(CCc1cccc(O)c1)NCCCNC(=O)CCc1cccc(O)c1 | > 200 | > 200 | – |
| O=C1c2ccsc2C(=O)c2ccsc21 | > 6.61 | 5.13 | – |
| NNC1=N/C(=C\c2ccccc2O)C(=O)N1 | > 200 | 35.5 | – |
| O=S(=O)(O)c1cc2ccc1/C=C\c1ccc(cc1S(=O)(=O)O)N=Nc1ccc(c(S(=O)(=O)O)c1)/C=C\c1ccc(cc1S(=O)(=O)O)N=N2 | – | – | active |
| CCC1(CC)C(=O)NN(C(=O)c2ccc(Cl)cc2)C1=O | > 200 | > 200 | – |
| Cc1cc(N(CCC#N)CCC#N)ccc1/C=C1\N=C(c2cc([N+](=O)[O-])ccc2Cl)N(c2cccc(Cl)c2)C1=O | > 12.6 | > 12.6 | – |
| COc1ccc2c(c1)c1c(n2CCN2CCCCC2)-c2ccccc2CC1 | > 200 | 13.2 | – |

| SMILES | EC50 [µM] | IC50 [µM] | outcome |
| --- | --- | --- | --- |
| CCOC(=O)C1=C(OS(=O)(=O)C(F)(F)F)CCCC1 | > 200 | > 200 | – |
| C1#CCCCCCCC#CCCCCC1.[C-]#[O+].[C-]#[O+].[C-]#[O+].[C-]#[O+].[C-]#[O+].[C-]#[O+].[C-]#[O+].[C-]#[O+].[C-]#[O+].[C-]#[O+].[C-]#[O+].[C-]#[O+].[Co].[Co].[Co].[Co] | > 2.57 | > 2.57 | – |
| Cc1ccc(N=Nc2c(N)nn3cc4c(nc23)CCCCC4)cc1 | > 200 | > 200 | – |
| COc1ccc(Oc2nc3c(N)cc(C(F)(F)F)cc3nc2-c2ccccc2)cc1 | > 100 | 34.7 | – |
| Nc1ncc2c(ncn2CC(O)CO)n1 (stereo unspecified) | > 1200 | > 1200 | – |
| Cc1ccc(-c2cc(=O)c3cc(C)c(C)c(C(=O)O)c3o2)cc1[N+](=O)[O-] | – | – | inactive |
| CCCCCCCCCCCCCCCC(=O)OCC1OC(CO)(OC2OC(CO)C(O)C(O)C2O)C(O)C1O (stereo unspecified) | > 200 | 64.6 | – |
| O=C1c2ccccc2CC12Cc1cc3c(cc1C2)CCC3 | > 200 | > 200 | – |
| CNCCSSCCN | > 200 | > 200 | – |
| CCOC(=O)/C(C#N)=C/c1ccc(-c2ccccc2)cc1 | > 25.7 | > 25.7 | – |
| COc1ccc(NC(=S)NNC(=O)c2nsc3ccccc23)cc1 | > 138 | 19.1 | – |
| COc1ccc(C2=CC(=O)CCC2)cc1 | > 178 | > 178 | – |
| CNC(=O)CC1NC(=O)c2csc(n2)-c2ccc(-c3nc(C4=NC(C(=O)N5CCCC5C(N)=O)CO4)cs3)nc2-c2csc(n2)-c2csc(n2)C(C(C)C)NC(=O)CNC(=O)c2csc(n2)C(C(C)C)NC(=O)c2nc1sc2C (stereo unspecified) | > 10 | > 10 | – |
| C[C@@H]1C=C[C@@H]2COC(=O)C2=C[C@@H]1c1ccccc1 | – | – | inactive |
| C=C1C(=O)C23[C@H](O)C1CC[C@H]2[C@]12COC3(O)[C@@H](O)[C@@H]1C(C)(C)CC[C@@H]2O | > 347 | 1.95 | – |
| C[N+](C)(C)CCC[N+](C)(C)CCN1C(=O)c2cccc3cccc(c23)C1=O | > 200 | > 200 | – |
| Cc1c2ccccc2nc(CSCCC(C)C)[n+]1[O-] | 28.8 | 135 | – |
| NCCCNCCCCN1CC1 | > 200 | 1.17 | – |
| CC1=Nc2ccccc2S/C1=C(/C)NNC(=O)C(N)=O | > 89.1 | > 89.1 | – |
